Source: patent US20260250318A1, “COMPOSITIONS AND METHODS FOR CROSSING THE BLOOD BRAIN BARRIER” (VOYAGER THERAPEUTICS, INC., priority 2022, published 2026)

Tests used:
[1] = test system: brains, heart, liver, muscle, and DRG of the NHPs; experiment: Maturation of TTM-001 and TTM-002 capsids, NGS enrichment in NHP tissues; type: in vivo; details: relative to AAV9 control
In short: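 Variants carry mutations within and flanking the loop IV peptide insert: positions 450–466 were triplet-randomized, while positions 449–466 received low-frequency point mutations. The combined pool went into two NHPs, and each peptide was scored by NGS enrichment ratio against AAV9.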

[2] = test system: brain; experiment: Matured TTM-001 and TTM-002 variants, NGS enrichment in mouse brain; type: in vivo, mice; details: relative to AAV9 control
[3] = NGS fold-enrichment of RNA, NHP brain
[4] = NGS fold-enrichment, DRG of NHPs
[5] = NGS fold-enrichment, NHP liver DNA
[6] = NGS fold-enrichment, NHP liver RNA
[7] = NGS fold-enrichment, NHP muscle
[8] = NGS fold-enrichment, RNA, brain of NHPs
[9] = NGS fold-enrichment, heart of NHPs
[10] = NGS fold-enrichment, liver DNA of NHPs
[11] = NGS fold-enrichment, liver RNA of NHPs
[12] = NGS fold-enrichment, muscle of NHPs
[13] = NGS fold-enrichment, brain of mice
[14] = NGS fold-enrichment, mouse brain
[15] = NGS fold-enrichment of matured AAV capsid variants, NHP brain, RNA

| Sequence | Fold Enrichment relative to AAV9, Brain (NHP) [1, 3] [fold] | Fold Enrichment relative to AAV9, DRG (NHP) [1, 4] [fold] | Fold Enrichment relative to AAV9, DRG (NHP) ([1]; NGS fold-enrichment, NHP DRG) [fold] | Fold Enrichment relative to AAV9, Heart (NHP) ([1]; NGS fold-enrichment, NHP heart) [fold] | Fold Enrichment relative to AAV9, Liver DNA (NHP) [1, 5] [fold] | Fold Enrichment relative to AAV9, Liver RNA (NHP) [1, 6] [fold] | Fold Enrichment relative to AAV9, Muscle (NHP) [1, 7] [fold] | Fold Enrichment relative to AAV9, Brain (NHP) [1, 8] [fold] | Fold Enrichment relative to AAV9, Heart (NHP) [1, 9] [fold] | Fold Enrichment relative to AAV9, Liver DNA (NHP) [1, 10] [fold] | Fold Enrichment relative to AAV9, Liver RNA (NHP) [1, 11] [fold] | Fold Enrichment relative to AAV9, Muscle (NHP) [1, 12] [fold] | Fold Enrichment relative to AAV9, Brain (Mouse) [2, 13] [fold] | Fold Enrichment relative to AAV9, Brain (Mouse) [2, 14] [fold] | also measured |
| --- | --- | --- | --- | --- | --- | --- | --- | --- | --- | --- | --- | --- | --- | --- | --- |
| KTINGSGSPHSKAQFPST | 75.677 | 0.000 | 0.000 | 0.004 | 0.127 | 0.849 | 0.000 | 75.677 | 0.004 | 0.127 | 0.849 | 0.000 | 119.712 | 119.712 | – |
| KTINGSGSPHSKAQYRAT | – | – | – | – | – | – | – | – | – | – | – | – | – | – | Fold Enrichment relative to AAV9, Brain (NHP) [1, 15]: 51.008 fold; Fold Enrichment relative to AAV9, DRG (NHP) ([1]; NHP DRG): 0.000 fold; Fold Enrichment relative to AAV9, Heart (NHP) ([1]; NHP heart): 0.158 fold; Fold Enrichment relative to AAV9, Liver DNA (NHP) ([1]; NHP liver, DNA): 0.120 fold; Fold Enrichment relative to AAV9, Liver RNA (NHP) ([1]; NHP liver, RNA): 0.690 fold; Fold Enrichment relative to AAV9, Muscle (NHP) ([1]; NHP muscle): 0.000 fold; Fold Enrichment relative to AAV9, Brain (Mouse) ([2]; mouse brain): 50.650 fold |
| KAINGSGSPHSKAHNQET | – | – | – | – | – | – | – | – | – | – | – | – | – | – | Fold Enrichment relative to AAV9, Brain (NHP) [1, 15]: 52.973 fold; Fold Enrichment relative to AAV9, DRG (NHP) ([1]; NHP DRG): 0.000 fold; Fold Enrichment relative to AAV9, Heart (NHP) ([1]; NHP heart): 0.030 fold; Fold Enrichment relative to AAV9, Liver DNA (NHP) ([1]; NHP liver, DNA): 0.058 fold; Fold Enrichment relative to AAV9, Liver RNA (NHP) ([1]; NHP liver, RNA): 0.035 fold; Fold Enrichment relative to AAV9, Muscle (NHP) ([1]; NHP muscle): 0.000 fold; Fold Enrichment relative to AAV9, Brain (Mouse) ([2]; mouse brain): 71.809 fold |
| KTINGQDSPHKSGQNQDT | 82.075 | – | 0.000 | 0.067 | 0.144 | 0.225 | 0.000 | – | – | – | – | – | – | 9.626 | – |
| KTINGSGSPHSKAQAFHT | – | 0.033 | – | – | – | – | – | 70.159 | 0.000 | 0.119 | 0.762 | 0.058 | 86.268 | – | – |
| KSINGGGSPHSKAQYQQT | – | – | – | – | – | – | – | – | – | – | – | – | – | – | Fold Enrichment relative to AAV9, Brain (NHP) [1, 15]: 54.612 fold; Fold Enrichment relative to AAV9, DRG (NHP) ([1]; NHP DRG): 0.000 fold; Fold Enrichment relative to AAV9, Heart (NHP) ([1]; NHP heart): 0.000 fold; Fold Enrichment relative to AAV9, Liver DNA (NHP) ([1]; NHP liver, DNA): 0.010 fold; Fold Enrichment relative to AAV9, Liver RNA (NHP) ([1]; NHP liver, RNA): 0.105 fold; Fold Enrichment relative to AAV9, Muscle (NHP) ([1]; NHP muscle): 0.000 fold; Fold Enrichment relative to AAV9, Brain (Mouse) ([2]; mouse brain): 65.952 fold |
| KTSNGSGSPHSKAQNQST | – | – | – | – | – | – | – | – | – | – | – | – | – | – | Fold Enrichment relative to AAV9, Brain (NHP) [1, 15]: 53.353 fold; Fold Enrichment relative to AAV9, DRG (NHP) ([1]; NHP DRG): 0.000 fold; Fold Enrichment relative to AAV9, Heart (NHP) ([1]; NHP heart): 0.000 fold; Fold Enrichment relative to AAV9, Liver DNA (NHP) ([1]; NHP liver, DNA): 0.014 fold; Fold Enrichment relative to AAV9, Liver RNA (NHP) ([1]; NHP liver, RNA): 0.000 fold; Fold Enrichment relative to AAV9, Muscle (NHP) ([1]; NHP muscle): 0.000 fold; Fold Enrichment relative to AAV9, Brain (Mouse) ([2]; mouse brain): 120.897 fold |
| KTINGSGSPHSKAQDRPT | – | 0.132 | – | – | – | – | – | 70.831 | 0.006 | 0.379 | 0.039 | 0.000 | 66.800 | – | – |
| KTITGHDSPHKSGQNQWT | 81.658 | – | 0.000 | 0.090 | 0.000 | 0.936 | 0.000 | – | – | – | – | – | – | 7.744 | – |
| KTETHSGSPHSKAQNQQT | 77.974 | 0.000 | 0.000 | 0.067 | 0.512 | 0.000 | 0.000 | 77.974 | 0.067 | 0.512 | 0.000 | 0.000 | 57.287 | 57.287 | – |
| KTEFGHDSPHKSGQNQQT | 77.245 | – | 0.000 | 0.124 | 0.063 | 0.561 | 0.000 | – | – | – | – | – | – | 16.337 | – |
| KSIKGNGSPHSKAQNQQT | 75.196 | 0.000 | 0.000 | 0.000 | 0.000 | 0.000 | 0.000 | 75.196 | 0.000 | 0.000 | 0.000 | 0.000 | 90.251 | 90.251 | – |
| KTFNRSGSPHSKAQNQQI | 86.359 | – | 0.000 | 113.67 | 0.092 | 0.000 | 0.000 | – | – | – | – | – | – | 25.568 | – |
| KTEQTSGSPHSKAQNQQT | – | – | – | – | – | – | – | – | – | – | – | – | – | – | Fold Enrichment relative to AAV9, Brain (NHP) [1, 15]: 56.683 fold; Fold Enrichment relative to AAV9, DRG (NHP) ([1]; NHP DRG): 0.000 fold; Fold Enrichment relative to AAV9, Heart (NHP) ([1]; NHP heart): 0.045 fold; Fold Enrichment relative to AAV9, Liver DNA (NHP) ([1]; NHP liver, DNA): 0.430 fold; Fold Enrichment relative to AAV9, Liver RNA (NHP) ([1]; NHP liver, RNA): 0.792 fold; Fold Enrichment relative to AAV9, Muscle (NHP) ([1]; NHP muscle): 0.000 fold; Fold Enrichment relative to AAV9, Brain (Mouse) ([2]; mouse brain): 59.360 fold |
| KTINGSGSPHSKAQPAKT | 111.472 | 0.331 | 0.331 | 0.000 | 1.796 | 0.044 | 1.089 | 111.472 | 0.000 | 1.796 | 0.044 | 1.089 | 215.275 | 215.275 | – |
| KTINGCGSPHASGQNQQT | 132.540 | – | 0.000 | 0.121 | 0.059 | 0.000 | 0.042 | – | – | – | – | – | – | 1.857 | – |
| KTVKGSGSPHSKAQDQQT | – | 0.000 | – | – | – | – | – | 61.175 | 0.041 | 0.090 | 0.432 | 0.000 | 58.114 | – | – |
| KTVNGSGSPHSKAQNLQA | – | 0.000 | – | – | – | – | – | 66.379 | 0.000 | 0.132 | 0.000 | 0.000 | 50.934 | – | – |
| KTINGPDSPHKIGQNQQS | 85.726 | – | 0.000 | 0.055 | 0.063 | 0.000 | 0.171 | – | – | – | – | – | – | 10.055 | – |
| KTINGGGSPHSKAQNPPT | – | 0.000 | – | – | – | – | – | 63.041 | 0.082 | 0.057 | 0.000 | 0.000 | 64.045 | – | – |
